# Target: T1, recombinant human GST-SYK (Homo sapiens, UniProt P43405)
# T1 construct: purchased Carna Biosciences 08-176
# Assay: Homogeneous Time-Resolved Fluorescence (HTRF) assay for the recombinant human Syk enzyme
# Type: biochemical
# Conditions: HTRF assay, recombinant human GST-SYK; IC50 given as class symbols; read-out: rhSYK Activity
# Outline: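 GST-hSYK ([…]) was preincubated with inhibitor (0.1% DMSO final) for 10 minutes at room temperature in 15 mM Tris-HCl pH 7.5, 0.01% tween 20, 2 mM DTT. Biotinylated peptide (250 nM), 5 mM magnesium and 25 μM ATP started a 45-minute room-temperature reaction, read by time-resolved fluorescence.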
row,Structure (SMILES),IC50
1,"Cc1cc(Nc2nccc(C(F)(F)F)n2)cc(-c2ccc(NC(C)(C)C(=O)O)nc2)c1 [Example 7.7, 2-methyl-N-[5-(3-methyl-5-{[4-(trifluoromethyl)pyrimidin-2-yl]amino}phenyl)pyridin-2-yl]alanine]",< 100 nM
2,"Cc1cc(Nc2nccc(C(F)(F)F)n2)cc(-c2ccc(N3CCCC4(CCCNC4=O)C3)nc2)c1 (stereo not shown) [Example 7.9, 8-[5-(3-methyl-5-{[4-(trifluoromethyl)pyrimidin-2-yl]amino}phenyl)pyridin-2-yl]-2,8-diazaspiro[5.5]undecan-1-one]",100 to 1000 nM
3,"Cc1cc(Nc2nccc(C(F)(F)F)n2)cc(-c2ccc(N3CCC4(CCCCN4)CC3)nc2)c1 [Example 7.10, N-{3-[6-(1,9-diazaspiro[5.5]undec-9-yl)pyridin-3-yl]-5-methylphenyl}-4-(trifluoromethyl)pyrimidin-2-amine]",100 to 1000 nM
4,"Cc1cc(Nc2nccc(C(F)(F)F)n2)cc(-c2ccc(N3CCCC4(CCCO4)C3)nc2)c1 (stereo not shown) [Example 7.11, N-{3-methyl-5-[6-(1-oxa-7-azaspiro[4.5]dec-7-yl)pyridin-3-yl]phenyl}-4-(trifluoromethyl)pyrimidin-2-amine]",100 to 1000 nM
5,"Cc1cc(Nc2nccc(C(F)(F)F)n2)cc(-c2ccc(N3CCCC4(C3)OCCO4)nc2)c1 [Example 7.12, N-{3-[6-(1,4-dioxa-7-azaspiro[4.5]dec-7-yl)pyridin-3-yl]-5-methylphenyl}-4-(trifluoromethyl)pyrimidin-2-amine]",100 to 1000 nM
6,Cc1cc(Nc2nccc(C(F)(F)F)n2)cc(-c2ccc(N3CCCC4(CCNC4=O)C3)nc2)c1 (stereo not shown) [Example 7.13],100 to 1000 nM
7,"Cc1cc(Nc2nccc(C(F)(F)F)n2)cc(-c2ccc(N3CCCC4(CCOC4=O)C3)nc2)c1 (stereo not shown) [Example 7.14, 7-[5-(3-methyl-5-{[4-(trifluoromethyl)pyrimidin-2-yl]amino}phenyl)pyridin-2-yl]-2-oxa-7-azaspiro[4.5]decan-1-one]",100 to 1000 nM
8,"Cc1cc(Nc2nccc(C(F)(F)F)n2)cc(-c2ccc(N3CCC4(CCN(C)C4=O)CC3)nc2)c1 [Example 7.15, 2-methyl-8-[5-(3-methyl-5-{[4-(trifluoromethyl)pyrimidin-2-yl]amino}phenyl)pyridin-2-yl]-2,8-diazaspiro[4.5]decan-1-one]",100 to 1000 nM
9,"Cc1cc(Nc2nccc(C(F)(F)F)n2)cc(-c2ccc(NCC3CCC(=O)N3)nc2)c1 (stereo not shown) [Example 7.16, 5-({[5-(3-methyl-5-{[4-(trifluoromethyl)pyrimidin-2-yl]amino}phenyl)pyridin-2-yl]amino}methyl)pyrrolidin-2-one]",< 100 nM
10,"Cc1cc(Nc2nccc(C(F)(F)F)n2)cc(-c2ccc(NCC(O)C(F)F)nc2)c1 (stereo not shown) [Example 7.17, 1,1-difluoro-3-{[5-(3-methyl-5-{[4-(trifluoromethyl)pyrimidin-2-yl]amino}phenyl)pyridin-2-yl]amino}propan-2-ol]",< 100 nM
11,"Cc1cc(Nc2nccc(C(F)(F)F)n2)cc(-c2ccc(NCCc3cnccn3)nc2)c1 [Example 7.18, N-(3-methyl-5-{6-[(2-pyrazin-2-ylethyl)amino]pyridin-3-yl}phenyl)-4-(trifluoromethyl)pyrimidin-2-amine]",< 100 nM
12,"Cc1cc(Nc2nccc(C(F)(F)F)n2)cc(-c2ccc(NC(C)c3ccccn3)nc2)c1 (stereo not shown) [Example 7.19, N-(3-methyl-5-{6-[(1-pyridin-2-ylethyl)amino]pyridin-3-yl}phenyl)-4-(trifluoromethyl)pyrimidin-2-amine]",100 to 1000 nM
13,"Cc1cc(Nc2nccc(C(F)(F)F)n2)cc(-c2ccc(NCc3cnn(C)c3)nc2)c1 [Example 7.20, N-[3-methyl-5-(6-{[(1-methyl-1H-pyrazol-4-yl)methyl]amino}pyridin-3-yl)phenyl]-4-(trifluoromethyl)pyrimidin-2-amine]",100 to 1000 nM
14,"Cc1cc(Nc2nccc(C(F)(F)F)n2)cc(-c2ccc(NCc3ncnn3C)nc2)c1 [Example 7.21, N-[3-methyl-5-(6-{[(1-methyl-1H-1,2,4-triazol-5-yl)methyl]amino}pyridin-3-yl)phenyl]-4-(trifluoromethyl)pyrimidin-2-amine]",< 100 nM
15,"Cc1cc(Nc2nccc(C(F)(F)F)n2)cc(-c2ccc(NC3CCNC3=O)nc2)c1 (stereo not shown) [Example 7.22, 3-{[5-(3-methyl-5-{[4-(trifluoromethyl)pyrimidin-2-yl]amino}phenyl)pyridin-2-yl]amino}pyrrolidin-2-one]",< 100 nM
16,"CCC(CO)Nc1ccc(-c2cc(C)cc(Nc3nccc(C(F)(F)F)n3)c2)cn1 (stereo not shown) [Example 7.23, 2-{[5-(3-methyl-5-{[4-(trifluoromethyl)pyrimidin-2-yl]amino}phenyl)pyridin-2-yl]amino}butan-1-ol]",< 100 nM
17,"Cc1cc(Nc2nccc(C(F)(F)F)n2)cc(-c2ccc(NCCc3cnc[nH]3)nc2)c1 [Example 7.24, N-[3-(6-{[2-(1H-imidazol-4-yl)ethyl]amino}pyridin-3-yl)-5-methylphenyl]-4-(trifluoromethyl)pyrimidin-2-amine]",100 to 1000 nM

row,Structure (SMILES),IC50
1,"Cc1cc(Nc2nccc(C(F)(F)F)n2)cc(-c2ccc(NCc3cn(C)cn3)nc2)c1 [Example 7.25, N-[3-methyl-5-(6-{[(1-methyl-1H-imidazol-4-yl)methyl]amino}pyridin-3-yl)phenyl]-4-(trifluoromethyl)pyrimidin-2-amine]",< 100 nM
2,"Cc1cc(Nc2nccc(C(F)(F)F)n2)cc(-c2ccc(NCCN)nc2)c1 [Example 7.25A, N-[5-(3-methyl-5-{[4-(trifluoromethyl)pyrimidin-2-yl]amino}phenyl)pyridin-2-yl]ethane-1,2-diamine]",< 100 nM
3,"Cc1cc(Nc2nccc(C(F)(F)F)n2)cc(-c2ccc(NCCCN)nc2)c1 [Example 7.26, N-[5-(3-methyl-5-{[4-(trifluoromethyl)pyrimidin-2-yl]amino}phenyl)pyridin-2-yl]propane-1,3-diamine]",< 100 nM
4,"Cc1cc(Nc2nccc(C(F)(F)F)n2)cc(-c2ccc(N3CCNC(=O)CC3)nc2)c1 [Example 7.27, 1-[5-(3-methyl-5-{[4-(trifluoromethyl)pyrimidin-2-yl]amino}phenyl)pyridin-2-yl]-1,4-diazepan-5-one]",< 100 nM
5,"CNC(=O)CN(C)c1ccc(-c2cc(C)cc(Nc3nccc(C(F)(F)F)n3)c2)cn1 [Example 7.28, N,N~2~-dimethyl-N~2~-[5-(3-methyl-5-{[4-(trifluoromethyl)pyrimidin-2-yl]amino}phenyl)pyridin-2-yl]glycinamide]",< 100 nM
6,"CNC(=O)CNc1ccc(-c2cc(C)cc(Nc3nccc(C(F)(F)F)n3)c2)cn1 [Example 7.29, N-methyl-N~2~-[5-(3-methyl-5-{[4-(trifluoromethyl)pyrimidin-2-yl]amino}phenyl)pyridin-2-yl]glycinamide]",< 100 nM
7,"Cc1cc(Nc2nccc(C(F)(F)F)n2)cc(-c2ccc(N(C)CCO)nc2)c1 [Example 7.30, 2-{methyl[5-(3-methyl-5-{[4-(trifluoromethyl)pyrimidin-2-yl]amino}phenyl)pyridin-2-yl]amino}ethanol]",< 100 nM
8,"Cc1cc(Nc2nccc(C(F)(F)F)n2)cc(-c2ccc(NCC(N)=O)nc2)c1 [Example 7.31, N~2~-[5-(3-methyl-5-{[4-(trifluoromethyl)pyrimidin-2-yl]amino}phenyl)pyridin-2-yl]glycinamide]",< 100 nM
9,"Cc1cc(Nc2nccc(C(F)(F)F)n2)cc(-c2ccc(N3CCC(C(N)=O)CC3)nc2)c1 [Example 7.32, 1-[5-(3-methyl-5-{[4-(trifluoromethyl)pyrimidin-2-yl]amino}phenyl)pyridin-2-yl]piperidine-4-carboxamide]",< 100 nM
10,"Cc1cc(Nc2nccc(C(F)(F)F)n2)cc(-c2ccc(N3CCN(C)C(=O)C3)nc2)c1 [Example 7.33, 1-methyl-4-[5-(3-methyl-5-{[4-(trifluoromethyl)pyrimidin-2-yl]amino}phenyl)pyridin-2-yl]piperazin-2-one]",100 to 1000 nM
11,"Cc1cc(Nc2nccc(C(F)(F)F)n2)cc(-c2ccc(NC(C)(C)CO)nc2)c1 [Example 7.35, 2-methyl-2-{[5-(3-methyl-5-{[4-(trifluoromethyl)pyrimidin-2-yl]amino}phenyl)pyridin-2-yl]amino}propan-1-ol]",100 to 1000 nM
12,"Cc1cc(Nc2nccc(C(F)(F)F)n2)cc(-c2ccc(N3CC(O)C3)nc2)c1 [Example 7.36, 1-[5-(3-methyl-5-{[4-(trifluoromethyl)pyrimidin-2-yl]amino}phenyl)pyridin-2-yl]azetidin-3-ol]",< 100 nM
13,"CC(=O)NCCNc1ccc(-c2cc(C)cc(Nc3nccc(C(F)(F)F)n3)c2)cn1 [Example 7.37, N-(2-{[5-(3-methyl-5-{[4-(trifluoromethyl)pyrimidin-2-yl]amino}phenyl)pyridin-2-yl]amino}ethyl)acetamide]",< 100 nM
14,"Cc1cc(Nc2nccc(C(F)(F)F)n2)cc(-c2ccc(N(C)CC(=O)O)nc2)c1 [Example 7.39, N-methyl-N-[5-(3-methyl-5-{[4-(trifluoromethyl)pyrimidin-2-yl]amino}phenyl)pyridin-2-yl]glycine]",< 100 nM
15,"Cc1cc(Nc2nccc(C(F)(F)F)n2)cc(-c2ccc(NCC(C)O)nc2)c1 (stereo not shown) [Example 7.40, 1-{[5-(3-methyl-5-{[4-(trifluoromethyl)pyrimidin-2-yl]amino}phenyl)pyridin-2-yl]amino}propan-2-ol]",< 100 nM
16,"Cc1cc(Nc2nccc(C(F)(F)F)n2)cc(-c2ccc(N(C)CCC3OCCO3)nc2)c1 [Example 7.41, N-[3-(6-{[2-(1,3-dioxolan-2-yl)ethyl](methyl)amino}pyridin-3-yl)-5-methylphenyl]-4-(trifluoromethyl)pyrimidin-2-amine]",100 to 1000 nM
17,"CNC(=O)C1CCN(c2ccc(-c3cc(C)cc(Nc4nccc(C(F)(F)F)n4)c3)cn2)CC1 [Example 7.42, N-methyl-1-[5-(3-methyl-5-{[4-(trifluoromethyl)pyrimidin-2-yl]amino}phenyl)pyridin-2-yl]piperidine-4-carboxamide]",100 to 1000 nM

# Reference: US9376418B2, “Substituted pyridine spleen tyrosine kinase (SYK) inhibitors” (Merck Sharp & Dohme Corp., priority 2012, dated 2016)
